Laboratory results from patent US20250169496A1, “USE OF 2-AMINO-3-HYDROXY-3-METHYLBUTYRIC ACID AND/OR 2-AMINO-3-(4-HYDROXYPHENYL) BUTYRIC ACID” (NANJING TIANNONG BIOTECHNOLOGY CO., LTD., priority 2021, published 2025).
“And” between values parts separate entries of the source, which are not always exact repeats. Identical values can stand only once.

Assays:
[1] = test system: cotton under salt stress; test: Hydroponic cotton under salt stress (100 mM NaCl); type: in vivo, cotton (Si Kang 1#); details: 100 mM NaCl for three days
Experimental: The experimental material is “Si Kang 1#” cotton. Use 500 mL plastic cups for hydroponic culture and replace the ½Hoagland nutrient solution once every two days. Spray a 2-amino-3-hydroxy-3-methylbutyric acid solution on the leaf surface when the cotton seedlings grow until the second true leaf is fully open, set the concentrations at 0, 1, 10, 100 and 1,000 nM in the experiment, and add 0.02% Tween 20 as a surfactant. Spray once every 24 h, twice in total, add NaCl to the ½Hoagland nutrient solution on the second day after treatment to make its final concentration be 100 mM, and conduct salt stress treatment. Repeat each treatment three times. Rewater after three days of salt stress, observe the salt damage symptoms of cotton, and calculate the salt damage index by the following formula: […]

[2] = test system: Pseudomonas syringae PstDC3000; test: Induced resistance of Arabidopsis to infection of Pseudomonas syringae; type: in vivo; details: for Disease index: Arabidopsis 3 d after PstDC3000 inoculation; for CFU/mg (number of bacteria per mg of leaves): Arabidopsis leaves 3 d after PstDC3000 inoculation; for Decrease of disease index / Decrease of number of bacteria per mg of leaves: compared to blank control
Experimental: Take 2-amino-3-hydroxy-3-methylbutyric acid, dissolve it in sterile water, dilute the solution with sterile water by gradient into 100 nM, 1,000 nM and 10,000 nM solutions, set a blank control, and meanwhile add 0.02% Tween 20 as a surfactant. Spread Pseudomonas syringaePstDC3000 on an LB plate, and culture it at 28° C. for 48h; pick a monoclonal colony, inoculate it in a 50 mL centrifuge tube containing 2 mL of medium, culture it on a shaker at 28° C., 250 rpm, monitor changes of OD600 of the bacterial solution once every 1-2 h, and stop bacteria culturing before OD600 reaches 0.8; transfer 1 mL of the bacterial solution to a sterile 1.5 mL centrifuge tube, centrifuge it at 8000 rpm for 2 min, and collect the precipitate; remove the supernatant, wash the precipitate with 10 mM magnesium chloride for three times and centrifuge, lastly re-suspend PstDC3000 in the 10 mM magnesium chloride until its OD600 reaches 0.001, and keep it for future use. Soake Arabidopsis seeds in 75% alcohol for 3 min, then wash them with sterile water for 4 times, inoculate it in culture dishes filled with ½ MS medium, 12 seeds per dish, vernalize the ½ MS culture dishes containing seeds at 4° C. for 3 d to break dormancy, then put them in a 22° C. culture room with luminous intensity of 100μE m^−2s-^1(16 hillumination/8 h darkness), slowly pour the above 2-amino-3-hydroxy-3-methylbutyric acid at different concentrations into the culture dishes until the entire Arabidopsis seedlings are submerged after the seedlings have grown for 2 weeks, maintain this state for 2-3 minutes, and then pour the treatment solution out of the culture dishes, treat it once every 24 h, twice in total, inoculate PstDC3000 suspension (OD600=0.01) to Arabidopsis leaves by the same submerging method 24 h after the second treatment, seal the culture dishes with medical breathable adhesive after the inoculation, put them in the culture room for continued culturing. 3 d after, determine the number of bacteria after different treatments, observe the morbidity of Arabidopsis, and calculate the disease index by the method same as the disease index calculation formula in Embodiment 2.
Grading standard of diseases caused by PstDC3000(with leaf as a unit): • Level 0: No disease spot on the leaf surface; • Level 1: The area of the disease spots accounts for 0%-10% of the whole leaf area; • Level 2: The area of the disease spots accounts for 10%-25% of the whole leaf area; • Level 3: The area of the disease spots accounts for 25%-50% of the whole leaf area; • Level 4: The area of the disease spots accounts for 50%-75% of the whole leaf area; • Level 5: The area of the disease spots accounts for […] of the whole leaf area.

[3] = test system: wheat powdery mildew; test: Field test of induced resistance of wheat to powdery mildew; type: in vivo; details: 1,000 nM; for Thousand kernel weight: dried harvested wheat seeds; for Relative immune effect: vs additive control
Experimental: Spraya 2-amino-3-hydroxy-3-methylbutyric acid solution (surfactant Tween 20 (0.02% (v/v) is added) at a concentration of 1,000 nM on stems and leaves in the field of Jiangsu Academy of Agricultural Sciences, use surfactant Tween 20 with a spray volume percent of 0.02% as an additive control, Atailing with 30 g sprayed per mu as a positive control, and repeat each treatment for three times. Investigate the wheat morbidity level of each treatment, record the morbidity level according to the wheat powdery mildew grading standard in the Pesticide—Guidelines for the Field Efficacy Trials(I) and calculate the disease index and relative immune effect by the calculation method same as that for the disease index and relative immune effect of tomato spotted wilt. After drying of the harvested wheat seeds, determine the thousand kernel weight of the wheat seeds under different treatments. The wheat powdery mildew grading standard (with leaf as a unit): • Level 1: The area of the disease spots accounts for less than 5% of the whole leaf area; • Level 3: The area of the disease spots accounts for 6%-15% of the whole leaf area; • Level 5: The area of the disease spots accounts for 16%-25% of the whole leaf area; • Level 7: The area of the disease spots accounts for 26%-50% of the whole leaf area; • Level 9: The area of the disease spots accounts for more than 50% of the whole leaf area.

[4] = test system: wheat under drought stress; test: Hydroponic wheat under drought stress (25% PEG-6000); type: in vivo; details: for Drought damage index / Dry weight, overground part / Dry weight, underground part / Fresh weight, overground part / Fresh weight, underground part / Root length: wheat, 6 d 25% PEG-6000, recovered 7 d; for Decrease of drought damage index / Increase of fresh weight of the overground part / Increase of fresh weight of the underground part / Increase of root length of wheat seedlings: compared to the control, drought stress
Experimental: Use a 6-mesh screen as a container for hydroponic culture of wheat, 50 grains per screen, replace the ½ Hoagland nutrient solution once every two days, spray 2-amino-3-hydroxy-3-methylbutyric acid solutions at2-amino-3-hydroxy-3-methylbutyric acid concentrations of 0, 100 and 1,000 nM when the wheat grows to the stage of two leaves and one shoot, and meanwhile, add 0.02% Tween 20 as a surfactant; after two days of continuous spray, replace the hydroponic nutrient solution with a ½ Hoagland nutrient solution containing 25% PEG-6000 for stress treatment,rewater after 6 d of drought stress, recover growth in a normal nutrient solution for 7 d, then observe and determine the drought damage index, and determine the root length and biomass.
The manifestation features after drought damage of leaves are similar to those after salt damage. By taking reference to the salt damage evaluation indexes, drought damage rate and drought damage index are introduced.

| Compound | Death rate ([1]; 1 nM) | Salt damage index ([1]; 1 nM) | Death rate ([1]; 10 nM) | Salt damage index ([1]; 10 nM) | Death rate ([1]; 100 nM) | Salt damage index ([1]; 100 nM) | Death rate ([1]; 1,000 nM) | Salt damage index ([1]; 1,000 nM) | Disease index ([2]; 100 nM) | CFU/mg (number of bacteria per mg of leaves) ([2]; 100 nM) | Decrease of disease index ([2]; 100 nM) | Decrease of number of bacteria per mg of leaves ([2]; 100 nM) | Disease index ([2]; 1,000 nM) | CFU/mg (number of bacteria per mg of leaves) ([2]; 1,000 nM) | Decrease of disease index ([2]; 1,000 nM) | Decrease of number of bacteria per mg of leaves ([2]; 1,000 nM) | Decrease of disease index ([2]; 10,000 nM) | Decrease of number of bacteria per mg of leaves ([2]; 10,000 nM) | Thousand kernel weight [3] | Relative immune effect [3] | other results |
| --- | --- | --- | --- | --- | --- | --- | --- | --- | --- | --- | --- | --- | --- | --- | --- | --- | --- | --- | --- | --- | --- |
| CC(c1ccc(O)cc1)C(N)C(=O)O (stereo not shown) [2-amino-3-(4-hydroxyphenyl) butyric acid] | 48% | 64% | 45% | 56% | 30% | 52% | 29% | 43% | 40.06 ± 0.98 b | 4.43 × 10^5 CFU/mg | 51.11% | 86.20% | 36.81 ± 0.28 c | 3.04 × 10^5 CFU/mg | 55.07% | 90.53% | 66.84% | 91.37% | 37.92 g and 37.92 ± 0.21 a g | 47.28% | Drought damage index ([4]; 100 nM): 47%; Dry weight, overground part ([4]; 100 nM): 0.83 ± 0.01a g; Dry weight, underground part ([4]; 100 nM): 0.36 ± 0.01a g; Fresh weight, overground part ([4]; 100 nM): 7.34 ± 0.18b g; Fresh weight, underground part ([4]; 100 nM): 3.70 ± 0.03b g; Root length ([4]; 100 nM): 14.02 ± 0.03a cm; Decrease of drought damage index ([4]; 1,000 nM): 49%; Increase of fresh weight of the overground part ([4]; 1,000 nM): 45.66%; Increase of fresh weight of the underground part ([4]; 1,000 nM): 57.93%; Increase of root length of wheat seedlings ([4]; 1,000 nM): 11.47%; Drought damage index ([4]; 1,000 nM): 25%; Dry weight, overground part ([4]; 1,000 nM): 0.93 ± 0.05a g; Dry weight, underground part ([4]; 1,000 nM): 0.39 ± 0.01a g; Fresh weight, overground part ([4]; 1,000 nM): 8.90 ± 0.15a g; Fresh weight, underground part ([4]; 1,000 nM): 4.58 ± 0.01a g; Root length ([4]; 1,000 nM): 14.67 ± 007a cm |
| CC(C)(O)C(N)C(=O)O (stereo not shown) [2-amino-3-hydroxy-3-methylbutyric acid] | 51% | 66% | 47% | 58% | 34% | 54% | 30% | 48% | 40.90 ± 2.41 b | 9.46 × 10^5 CFU/mg | 43.22% | 70.34% | 38.90 ± 1.96 b | 7.11 × 10^5 CFU/mg | 45.60% | 77.71% | 58.07% | 88.06% | 32.61 g and 32.61 ± 0.18 a g | 38.74% | CFU/mg (number of bacteria per mg of leaves) ([2]; 10,000 nM): 3.81×10^5 CFU/mg; Drought damage index ([4]; 100 nM): 45%; Dry weight, overground part ([4]; 100 nM): 0.80 ± 0.01b g; Dry weight, underground part ([4]; 100 nM): 0.33 ± 0.01a g; Fresh weight, overground part ([4]; 100 nM): 7.27 ± 0.02b g; Fresh weight, underground part ([4]; 100 nM): 3.65 ± 0.01b g; Root length ([4]; 100 nM): 13.94 ± 0.03a cm; Decrease of drought damage index ([4]; 1,000 nM): 51%; Increase of fresh weight of the overground part ([4]; 1,000 nM): 44.92%; Increase of fresh weight of the underground part ([4]; 1,000 nM): 55.02%; Increase of root length of wheat seedlings ([4]; 1,000 nM): 11.30%; Drought damage index ([4]; 1,000 nM): 26%; Dry weight, overground part ([4]; 1,000 nM): 0.92 ± 0.05a g; Dry weight, underground part ([4]; 1,000 nM): 0.37 ± 0.01a g; Fresh weight, overground part ([4]; 1,000 nM): 8.84 ± 0.09a g; Fresh weight, underground part ([4]; 1,000 nM): 4.48 ± 0.02a g; Root length ([4]; 1,000 nM): 14.58 ± 0.01a cm |
